# Legend:
# ECHCG [1] = test: Herbicidal pre-emergence action 2a (greenhouse pots, visual scoring); assay type: in vivo, Echinochloa crus-galli; settings: dosage 320 g/ha, visual scoring after about 3 weeks
# From the text: (§1) [table] a) Seeds of monocotyledonous and dicotyledonous weed plants and crop plants are placed in plastic or organic plant pots and covered with soil. The compounds of the invention, formulated in the form of wettable powders (WP) or as emulsion concentrates (EC), are then applied onto the surface of the covering soil as aqueous suspension or emulsion with addition of 0.5% additive at a water application rate of 600 1/ha (converted). After the treatment, the pots are placed in a greenhouse and kept under good growth conditions for the trial plants. After about 3 weeks, the effect of the preparations is scored visually in comparison with untreated controls as percentages. For example, 100% activity=the plants have died, 0% activity=like control plants. Tables B1 to B15 below show the effects of selected compounds of the general formula (I) according to Tables 1 and 2 on various harmful plants and an application rate corresponding to 320 g/ha and/or 80 g/ha, which were obtained by the experimental procedure mentioned above.
# LOLRI [2] = test: Herbicidal post-emergence action 1a (greenhouse pots, visual rating); assay type: in vivo, Lolium rigidum; settings: Dosage 320 g/ha; rated visually about 3 weeks after treatment; 100% = plants have died, 0% = like control plants
# Procedure: (§2) [table] a) Seeds of monocotyledonous and dicotyledonous weeds and crop plants are placed in sandy loam in plastic or organic plant pots, covered with soil and cultivated in a greenhouse under controlled growth conditions. 2 to 3 weeks after sowing, the test plants are treated at the one-leaf stage. The compounds of the invention, formulated in the form of wettable powders (WP) or as emulsion concentrates (EC), are then sprayed onto the green parts of the plants as aqueous suspension or emulsion with addition of 0.5% additive at a water application rate of 600 1/ha (converted). After the test plants have been kept in the greenhouse under optimum growth conditions for about 3 weeks, the activity of the preparations is rated visually in comparison to untreated controls. For example, 100% activity=the plants have died, 0% activity=like control plants. Tables A1 to A15 below show the effects of selected compounds of the general formula (I) according to Tables 1 and 2 on various harmful plants and an application rate corresponding to 320 g/ha and/or 80 g/ha, which were obtained by the experimental procedure mentioned above.
# POLCO = test: as above; assay type: in vivo, Polygonum convolvulus; settings: dosage 320 g/ha, visual rating about 3 weeks after treatment
# Procedure, shortened: (§3)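 Weeds and crops sown in sandy loam in greenhouse pots were sprayed post-emergence at the one-leaf stage (2–3 weeks after sowing) with WP or EC formulations plus 0.5% additive at 600 l/ha water, 320 and/or 80 g/ha. About 3 weeks later damage was rated visually against untreated controls (0% = no effect, 100% = dead).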
# LOLRI [3] = test: Herbicidal pre-emergence action 2a (greenhouse pots, visual scoring); assay type: in vivo, Lolium rigidum; settings: dosage 320 g/ha, visual scoring after about 3 weeks vs untreated controls
# Procedure, shortened: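 Weed and crop seeds placed in pots and covered with soil; aqueous suspension or emulsion of WP/EC formulation applied to the soil surface before emergence (600 l/ha, 0.5% additive, 320 and/or 80 g/ha). Pots kept in the greenhouse about 3 weeks; visual percentage scoring.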
# MATIN [4] = test: Herbicidal post-emergence action 1a (greenhouse pots, visual rating); assay type: in vivo, Matricaria inodora; settings: dosage 320 g/ha, visual rating about 3 weeks after treatment
# Procedure: as §2
# ECHCG [5] = test: as above; assay type: in vivo, Echinochloa crus-galli; settings: Dosage 320 g/ha; rated visually about 3 weeks after treatment; 100% = plants have died, 0% = like control plants
# Procedure: as §2
# PHBPU = test: as above; assay type: in vivo, Pharbitis purpurea; settings: dosage 320 g/ha, visual rating about 3 weeks after treatment
# Procedure: as §2
# AMARE [6] = test: as above; assay type: in vivo, Amaranthus retroflexus; settings: dosage 320 g/ha, visual rating about 3 weeks after treatment
# Procedure, shortened: as §3
# AVEFA = test: as above; assay type: in vivo, Avena fatua; settings: Dosage 320 g/ha; rated visually about 3 weeks after treatment; 100% = plants have died, 0% = like control plants
# Procedure, shortened: as §3
# ALOMY = test: as above; assay type: in vivo, Alopecurus myosuroides; settings: Dosage 320 g/ha; rated visually about 3 weeks after treatment; 100% = plants have died, 0% = like control plants
# Procedure, shortened: as §3
# VERPE = test: as above; assay type: in vivo, Veronica persica; settings: visual rating about 3 weeks after treatment
# Procedure, shortened: as §3
# MATIN [7] = test: Herbicidal pre-emergence action 2a (greenhouse pots, visual scoring); assay type: in vivo, Matricaria inodora; settings: dosage 320 g/ha, visual scoring after about 3 weeks vs untreated controls
# From the text: as §1
# ABUTH = test: Herbicidal post-emergence action 1a (greenhouse pots, visual rating); assay type: in vivo, Abutilon theophrasti; settings: dosage 320 g/ha, visual rating about 3 weeks after treatment
# Procedure, shortened: as §3
# SETVI = test: as above; assay type: in vivo, Setaria viridis; settings: Dosage 320 g/ha; rated visually about 3 weeks after treatment; 100% = plants have died, 0% = like control plants
# Procedure, shortened: as §3
# STEME = test: Herbicidal pre-emergence action 2b (doubly sown, 1280 g/ha); assay type: in vivo, Stellaria media; settings: doubly sown pots, dosage 1280 g/ha, visual scoring after about 3 weeks
# Procedure, shortened: (§4)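 Read-out: visual percentage damage relative to untreated controls, scored after roughly 3 weeks in the greenhouse, where 100% means plants died and 0% equals control. Seeds were sown two species per pot in sandy loam and covered before the compounds, formulated as WP or EC with 0.5% additive, were sprayed onto the soil at 600 L/ha.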
# AMARE [8] = test: as above; assay type: in vivo, Amaranthus retroflexus; settings: doubly sown pots, dosage 1280 g/ha, visual scoring after about 3 weeks
# Procedure, shortened: as §4
# MATIN [9] = test: as above; assay type: in vivo, Matricaria inodora; settings: doubly sown pots, dosage 1280 g/ha, visual scoring after about 3 weeks
# Procedure, shortened: as §4
# DIGSA [10] = test: Herbicidal post-emergence action 1b (twin sowing, 1280 g/ha); assay type: in vivo, Digitaria sanguinalis; settings: dosage 1280 g/ha, visual rating about 3 weeks after treatment
# Procedure: (§5) [table] b) Seeds of mono- and dicotyledonous weed plants are placed in plastic pots in sandy loam soil (twin sowing with one species each of mono- or dicotyledonous weed plants per pot), covered with soil and cultivated in a greenhouse under controlled growth conditions. 2 to 3 weeks after sowing, the test plants are treated at the one-leaf stage. The compounds of the invention, formulated in the form of wettable powders (WP) or as emulsion concentrates (EC), are applied to the green parts of the plants as aqueous suspension or emulsion with addition of 0.5% additive at a water application rate equivalent to 600 litres per hectare. After the test plants have been kept in the greenhouse under optimum growth conditions for about 3 weeks, the activity of the preparations is rated visually in comparison to untreated controls. For example, 100% activity=the plants have died, 0% activity=like control plants. Tables A16 to A21 below show the effects of selected compounds of the general formula (I) according to Tables 1 and 2 on various harmful plants and at an application rate corresponding to 1280 g/ha, which were obtained by the experimental procedure mentioned above.
# POAAN [11] = test: Herbicidal pre-emergence action 2b (doubly sown, 1280 g/ha); assay type: in vivo, Poa annua; settings: doubly sown pots, dosage 1280 g/ha, visual scoring after about 3 weeks
# Procedure, shortened: as §4
# ECHCG [12] = test: Herbicidal post-emergence action 1b (twin sowing, 1280 g/ha); assay type: in vivo, Echinochloa crus-galli; settings: dosage 1280 g/ha, visual rating about 3 weeks after treatment
# Procedure: as §5
# DIGSA [13] = test: Herbicidal pre-emergence action 2b (doubly sown, 1280 g/ha); assay type: in vivo, Digitaria sanguinalis; settings: doubly sown pots, dosage 1280 g/ha, visual scoring after about 3 weeks
# From the text: [table] b) Seeds of mono- and dicotyledonous weed plants are placed in plastic pots in sandy loam soil (doubly sown with one species each of mono- or dicotyledonous weed plants per pot) and covered with soil. The compounds of the invention, formulated in the form of wettable powders (WP) or as emulsion concentrates (EC), are then applied onto the surface of the covering soil as aqueous suspension or emulsion with addition of 0.5% additive at a water application rate equivalent to 600 litres per hectare. After the treatment, the pots are placed in a greenhouse and kept under good growth conditions for the trial plants. After about 3 weeks, the effect of the preparations is scored visually in comparison with untreated controls as percentages. For example, 100% activity=the plants have died, 0% activity=like control plants. Tables B16 to B21 below show the effects of selected compounds of the general formula (I) according to Tables 1 and 2 on various harmful plants and at an application rate corresponding to 1280 g/ha, which were obtained by the experimental procedure mentioned above.
# POAAN [14] = test: Herbicidal post-emergence action 1b (twin sowing, 1280 g/ha); assay type: in vivo, Poa annua; settings: dosage 1280 g/ha, visual rating about 3 weeks after treatment
# Procedure, shortened: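 Sow paired weed species in sandy loam pots and grow in the greenhouse; at the one-leaf stage (2–3 weeks) spray green parts with compound suspension or emulsion containing 0.5% additive at 600 L water/ha; keep about 3 weeks, then score damage visually relative to untreated plants.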
# ECHCG [15] = test: Herbicidal pre-emergence action 2b (doubly sown, 1280 g/ha); assay type: in vivo, Echinochloa crus-galli; settings: doubly sown pots, dosage 1280 g/ha, visual scoring after about 3 weeks
# Procedure, shortened: as §4
# MATIN [16] = test: Herbicidal post-emergence action 1b (twin sowing, 1280 g/ha); assay type: in vivo, Matricaria inodora; settings: dosage 1280 g/ha, visual rating about 3 weeks after treatment
# Procedure: as §5
SMILES,Pre-emergence action at 1280 g/ha against STEME in % (STEME) [%],Pre-emergence action at 1280 g/ha against AMARE in % (AMARE [8]) [%],Pre-emergence action at 1280 g/ha against MATIN in % (MATIN [9]) [%],Post-emergence action at 1280 g/ha against DIGSA in % (DIGSA [10]) [%],Pre-emergence action at 1280 g/ha against POAAN in % (POAAN [11]) [%],Post-emergence action at 1280 g/ha against ECHCG in % (ECHCG [12]) [%],Pre-emergence action at 1280 g/ha against DIGSA in % (DIGSA [13]) [%],Post-emergence action at 1280 g/ha against POAAN in % (POAAN [14]) [%],Pre-emergence action at 1280 g/ha against ECHCG in % (ECHCG [15]) [%],Post-emergence action at 1280 g/ha against MATIN in % (MATIN [16]) [%],further results
CCOC(=O)COc1nn(-c2cnccn2)c(-c2cncc(F)c2)c1F [Example I-94],–,–,–,–,–,–,–,–,–,–,Pre-emergence action against ECHCG in % (ECHCG [1]): 100%; Post-emergence action against LOLRI in % (LOLRI [2]): 90%; Post-emergence action against POLCO in % (POLCO): 80%; Pre-emergence action against LOLRI in % (LOLRI [3]): 90%; Post-emergence action against MATIN in % (MATIN [4]): 80%; Post-emergence action against ECHCG in % (ECHCG [5]): 90%; Post-emergence action against PHBPU in % (PHBPU): 100%; Post-emergence action against AMARE in % (AMARE [6]): 80%; Post-emergence action against AVEFA in % (AVEFA): 80%; Post-emergence action against ALOMY in % (ALOMY): 80%; Post-emergence action against VERPE in % (VERPE; dosage 80 g/ha): 90%; Post-emergence action against VERPE in % (VERPE; dosage 320 g/ha): 90%; Pre-emergence action against MATIN in % (MATIN [7]): 90%; Post-emergence action against ABUTH in % (ABUTH): 90%; Post-emergence action against SETVI in % (SETVI): 90%
CCOC(=O)COc1nn(-c2nccnc2Cl)c(-c2ccc(F)nc2)c1Br [Example I-71],100,100,100,90,100,100,100,100,100,100,–
COC(=O)[C@H](C)Oc1nn(-c2cnccn2)c(-c2ccc(F)nc2)c1C#N [Example I-26],100,90,–,–,100,100,100,100,100,100,–
COC(=O)[C@@H](C)Oc1nn(-c2cnccn2)c(-c2ccnc(F)c2)c1C#N [Example I-35],100,90,–,90,100,–,90,100,–,–,–
COC(=O)COc1nn(-c2cnccn2)c(-c2cnc(F)c(F)c2)c1Br [Example I-42],90,90,90,90,100,–,100,100,–,100,–
COC(=O)COc1nn(-c2cnccn2)c(-c2ccnc(F)c2)c1Cl [Example I-06],100,90,90,–,100,100,–,–,100,90,–
CCOC(=O)COc1nn(-c2nccnc2F)c(-c2ccc(F)c(F)c2)c1Br [Example I-74],100,100,100,90,100,–,100,90,–,90,–

# Reference: patent US20230167088A1, “1-PYRAZINYLPYRAZOLYL-3-OXYALKYL ACIDS AND THEIR DERIVATIVES, AND THEIR USE FOR CONTROL OF UNDESIRED PLANT GROWTH” (BAYER AKTIENGESELLSCHAFT, priority 2020, published 2023)
